Test results taken from patent US20150320776A1, “METHOD OF INHIBITING HELICOBACTER PYLORI” (priority 2014, published 2015).
Values after ≈ are worked out from the molar mass of the structure shown. Read-outs that look alike come from different tables or passages of the source.

Assays:
Helicobacter pylori J99 = assay: Paper disc diffusion test, inhibition zone on agar plate; type: cell-based; details: blank disc 8 mm; for zone of inhibition at 4 mg/disc / zone of inhibition at 1 mg/disc: Helicobacter pylori, J99, read-out: inhibition growth diameter; for inhibition zone diameter (FIG. 5): amount per disc not given
Description: Helicobacter pylori J99 (HP J99) used in the embodiments of the present invention was purchased from Bioresource Collection and Research Center (BCRC). The cultivating condition is indicated as follows: the bacteria were inoculated onto CDC medium (CDC anaerobe 5% blood agar, BD) and then incubated at 37° C. for 48 to 72 hours. After incubation, the bacteria were further incubated under micro-aerobic condition (5% O2, 10% CO2, 85% N2). For preparation of solutions with the foregoing compound A or compound B, ethanol was used as solvent to prepare various suitable concentrations.
The test on the inhibitory effect of Helicobacter pylori with the compound A or compound B of the present invention was carried out as follows: Helicobacter pylori was first grown on a CDC agar plate containing sheep blood for 48 to 72 hours. The bacterial colony was scraped with a cotton swab or an inoculation loop and subsequently transferred into a normal saline solution (0.9% NaCl). The optical density was then adjusted to 2 Mcfarland (1-4×10^8/ml bacteria) to obtain a solution with Helicobacter pylori. Subsequently, the foregoing compound A or compound B was weighed out to prepare a series of concentrations (from 10 mg/ml to 100 mg/ml) of test solutions (40 μl) and then 40 μl of the solution were transferred onto blank paper discs. After dryness, the discs were separately stuck to a proper site on the agar plate. After incubation under micro-aerobic condition at 37° C. for 48 hours, observation was made if any inhibition zone emerged on the agar plate.
The compounds of the present invention, which were actually tested, included phenoxyacetic acid, 3,4-dihydrobenzoic acid, 3,5-diamino-benzoic acid, 4-aminophenylacetic acid, 4-nitrobenzoic acid, 2,4-dinitrobenzoic acid, 4-(dimethylamino)benzoic acid, 2-methoxyphenylacetic acid, 3-amino-4-methylbenzoic acid, 4-methylthiobenzoic acid, 4-bromphenylacetic acid, 1,4-cyclohexanedicarboxylic acid, phthalic acid, trans-cinnamic acid, 4-ethylbenzoic acid, phenylacetic acid, benzoic acid, 3-phenylpropionic acid, 4-phenylbutyric acid, 3,4-dimethoxybenzyl alcohol (1) and 4-indophenylboronic acid (2). Ethanol (3) and water (4) were used as control.

susceptible H. pylori = details: cited from earlier work; for increase of MIC90: ratio of pH 5.5 to 7.0
H. pylori J99 [1] = assay: Minimal bactericidal concentration (MBC); type: cell-based; details: Helicobacter pylori, kills 99.9% of bacteria of control group, 37° C., 1 to 2 hours
Description: Minimal bactericidal concentration (MBC) was determined by incubating test bacteria with different doses of test compounds for a period of time. Subsequently, the solutions underwent serial dilutions and the bacteria were grown on the agar plate by plate coating. At this moment, the concentration of test compound lost its inhibitory ability because of being diluted via serial dilutions and plate coating and it could be seen from the clear bacterial solution if the bacteria were dead. If bacteria growth was inhibited by the concentration of test compound, the bacteria might continue to grow after the abovementioned treatment and appeared in the form of colonies. In an embodiment of the present invention, H. pylori J99 were pre-cultivated for two days and colonies were scraped and suspended in saline solution. The bacterial concentration was then adjusted to 2 McFarland. After addition of suitable concentrations of benzoic acid and phenylacetic acid and incubation at 37° C. for 1 to 2 hours, the bacterial suspension underwent serial dilutions. 100 μl aliquots were taken from each suspension and applied on CDC plates. The plates were incubated under micro-aerobic condition at 37° C. for two days. The number of bacterial colonies was noted down and the concentration of test compound, that is able to kill 99.9% of bacteria of control group, was used as minimal bactericidal concentration.

H. pylori J99 [2] = assay: Minimum inhibition concentration with different pH values; type: cell-based, Helicobacter pylori; details: for MIC90: Helicobacter pylori; for MIC: pH 6.0 to pH 7.0, no change observed

O=C(O)C1CCC(C(=O)O)CC1 (stereo not drawn) [1,4-cyclohexanedicarboxylic acid]
zone of inhibition at 4 mg/disc (Helicobacter pylori J99; 4 mg/disc): 12 mm

O=C(O)c1ccc([N+](=O)[O-])cc1[N+](=O)[O-] [2,4-dinitrobenzoic acid]
inhibition growth diameter (Helicobacter pylori J99; 4 mg/disc): 33 mm

COc1ccccc1CC(=O)O [2-methoxyphenylacetic acid]
zone of inhibition at 4 mg/disc (Helicobacter pylori J99; 4 mg/disc): 16 mm

COc1ccc(CO)cc1OC [3,4-dimethoxybenzyl alcohol]
zone of inhibition at 4 mg/disc (Helicobacter pylori J99; 4 mg/disc): 20 mm | inhibition zone diameter (FIG. 5) (Helicobacter pylori J99): 20 mm

Nc1cc(N)cc(C(=O)O)c1 [3,5-diaminobenzoic acid]
zone of inhibition at 4 mg/disc (Helicobacter pylori J99; 4 mg/disc): 12 mm

Cc1ccc(C(=O)O)cc1N [3-amino-4-methylbenzoic acid]
zone of inhibition at 4 mg/disc (Helicobacter pylori J99; 4 mg/disc): 14 mm

O=C(O)CCc1ccccc1 [3-phenylpropionic acid]
zone of inhibition at 1 mg/disc (Helicobacter pylori J99; 1 mg/disc): 14 mm | zone of inhibition at 4 mg/disc (Helicobacter pylori J99; 4 mg/disc): 34 mm

CN(C)c1ccc(C(=O)O)cc1 [4-(dimethylamino)benzoic acid]
zone of inhibition at 4 mg/disc (Helicobacter pylori J99; 4 mg/disc): 26 mm

Nc1ccc(CC(=O)O)cc1 [4-aminophenylacetic acid]
zone of inhibition at 4 mg/disc (Helicobacter pylori J99; 4 mg/disc): 12 mm

O=C(O)Cc1ccc(Br)cc1 [4-bromphenylacetic acid]
inhibition growth diameter (Helicobacter pylori J99; 1 mg/disc): 16 mm | inhibition growth diameter (Helicobacter pylori J99; 4 mg/disc): 35 mm

CCc1ccc(C(=O)O)cc1 [4-ethylbenzoic acid]
zone of inhibition at 1 mg/disc (Helicobacter pylori J99; 1 mg/disc): 30 mm

OB(O)c1ccc(I)cc1 [4-indophenylboronic acid]
inhibition growth diameter (Helicobacter pylori J99; 1 mg/disc): 35 mm | inhibition zone diameter (FIG. 5) (Helicobacter pylori J99): 35 mm

Cc1ccc(C(O)=S)cc1 [4-methylthiobenzoic acid]
zone of inhibition at 1 mg/disc (Helicobacter pylori J99; 1 mg/disc): 18 mm | zone of inhibition at 4 mg/disc (Helicobacter pylori J99; 4 mg/disc): 40 mm

O=C(O)c1ccc([N+](=O)[O-])cc1 [4-nitrobenzoic acid]
zone of inhibition at 1 mg/disc (Helicobacter pylori J99; 1 mg/disc): 70 mm

O=C(O)CCCc1ccccc1 [4-phenylbutyric acid]
zone of inhibition at 4 mg/disc (Helicobacter pylori J99; 4 mg/disc): 28 mm

CC1(C)S[C@@H]2[C@H](NC(=O)[C@H](N)c3ccccc3)C(=O)N2[C@H]1C(=O)O [Ampicillin]
MIC90 (susceptible H. pylori; pH 5.5): 0.5 µg/mL (≈ 1.43 µM) | MIC90 (susceptible H. pylori; pH 6.0): 0.25 µg/mL (≈ 0.715 µM) | MIC90 (susceptible H. pylori; pH 7.5): 0.06 µg/mL (≈ 0.172 µM)

O=C(O)c1ccccc1 [Benzoic acid]
MBC (H. pylori J99 [1]): 500 µg/mL (≈ 4090 µM) | MIC90 (H. pylori J99 [2]; J99, pH 6): 0.06 µg/mL (≈ 0.491 µM) | MIC90 (H. pylori J99 [2]; J99, pH 6.5): 0.06 µg/mL (≈ 0.491 µM) | MIC90 (H. pylori J99 [2]; J99, pH 7): 0.06 µg/mL (≈ 0.491 µM) | MIC (H. pylori J99 [2]): 0.06 | zone of inhibition at 4 mg/disc (Helicobacter pylori J99; 4 mg/disc): 24 mm

O=C([O-])CC(O)(CC(=O)[O-])C(=O)[O-].O=C([O-])CC(O)(CC(=O)[O-])C(=O)[O-].[Bi+3].[K+].[K+].[K+] [Bismuth subcitrate]
MIC90 (susceptible H. pylori; pH 6.0): 8 µg/mL | MIC90 (susceptible H. pylori; pH 7.5): 16 µg/mL

CC1=C(C(=O)O)N2C(=O)[C@@H](NC(=O)[C@H](N)c3ccccc3)[C@H]2SC1 [Cefalexin]
MIC90 (susceptible H. pylori; pH 5.5): 32 µg/mL (≈ 92.1 µM) | MIC90 (susceptible H. pylori; pH 6.0): 16 µg/mL (≈ 46.1 µM) | MIC90 (susceptible H. pylori; pH 7.5): 2 µg/mL (≈ 5.76 µM)

O=C(O)c1cn(C2CC2)c2cc(N3CCNCC3)c(F)cc2c1=O [Ciprofloxacin]
MIC90 (susceptible H. pylori; pH 5.5): 2 µg/mL (≈ 6.04 µM) | MIC90 (susceptible H. pylori; pH 6.0): 0.5 µg/mL (≈ 1.51 µM) | MIC90 (susceptible H. pylori; pH 7.5): 0.12 µg/mL (≈ 0.362 µM)

CC[C@H]1OC(=O)[C@H](C)[C@@H](O[C@H]2C[C@@](C)(OC)[C@@H](O)[C@H](C)O2)[C@H](C)[C@@H](O[C@@H]2O[C@H](C)C[C@H](N(C)C)[C@H]2O)[C@](C)(OC)C[C@@H](C)C(=O)[C@H](C)[C@@H](O)[C@]1(C)O [Clarithromycin]
MIC90 (susceptible H. pylori; pH 5.5): 0.25 µg/mL (≈ 0.334 µM) | MIC90 (susceptible H. pylori; pH 6.0): 0.06 µg/mL (≈ 0.0802 µM) | MIC90 (susceptible H. pylori; pH 7.5): 0.03 µg/mL (≈ 0.0401 µM) | increase of MIC90 (susceptible H. pylori): eight

CC[C@H]1OC(=O)[C@H](C)[C@@H](O[C@H]2C[C@@](C)(OC)[C@@H](O)[C@H](C)O2)[C@H](C)[C@@H](O[C@@H]2O[C@H](C)C[C@H](N(C)C)[C@H]2O)[C@](C)(O)C[C@@H](C)C(=O)[C@H](C)[C@@H](O)[C@]1(C)O [Erythromycin]
MIC90 (susceptible H. pylori; pH 5.5): 8 µg/mL (≈ 10.9 µM) | MIC90 (susceptible H. pylori; pH 6.0): 2 µg/mL (≈ 2.73 µM) | MIC90 (susceptible H. pylori; pH 7.5): 0.06 µg/mL (≈ 0.0818 µM)

Cc1ncc([N+](=O)[O-])n1CCO [Metronidazole]
MIC90 (susceptible H. pylori; pH 5.5): 2 µg/mL (≈ 11.7 µM) | MIC90 (susceptible H. pylori; pH 6.0): 2 µg/mL (≈ 11.7 µM) | MIC90 (susceptible H. pylori; pH 7.5): 2 µg/mL (≈ 11.7 µM)

O=C(O)COc1ccccc1 [Phenoxyacetic acid]
zone of inhibition at 4 mg/disc (Helicobacter pylori J99; 4 mg/disc): 17 mm

O=C(O)Cc1ccccc1 [Phenylacetic acid]
MBC (H. pylori J99 [1]): 1000 µg/mL (≈ 7340 µM) | MIC90 (H. pylori J99 [2]; J99, pH 6.5, read-out: MIC90): 0.125 µg/mL (≈ 0.918 µM) | MIC90 (H. pylori J99 [2]; J99, pH 7): 0.125 µg/mL (≈ 0.918 µM) | MIC90 (H. pylori J99 [2]; J99, pH 6.0, read-out: MIC90): 0.125 µg/mL (≈ 0.918 µM) | MIC (H. pylori J99 [2]): 0.125 | zone of inhibition at 4 mg/disc (Helicobacter pylori J99; 4 mg/disc): 22 mm

O=C(O)/C=C/c1ccccc1 [Trans-cinnamic acid]
zone of inhibition at 1 mg/disc (Helicobacter pylori J99; 1 mg/disc): 25 mm

CC1(C)S[C@@H]2[C@H](NC(=O)[C@H](N)c3ccc(O)cc3)C(=O)N2[C@H]1C(=O)O [amoxicillin]
increase of MIC90 (susceptible H. pylori): eight

O=C(O)c1ccccc1C(=O)O [phthalic acid]
zone of inhibition at 4 mg/disc (Helicobacter pylori J99; 4 mg/disc): 12 mm

Penicillin
MIC90 (susceptible H. pylori; pH 5.5): 0.5 µg/mL | MIC90 (susceptible H. pylori; pH 6.0): 0.5 µg/mL | MIC90 (susceptible H. pylori; pH 7.5): 0.03 µg/mL
